Experimental data reported in paper PMC4604124, “In Vitro Characterization of the Pharmacological Properties of the Anti-Cancer Chelator, Bp4eT, and Its Phase I Metabolites” (PLoS ONE, 2015).
Values joined by “and” are separate entries in the source; they are usually repeats but may differ in a detail not shown here. Equal entries are not always repeated. Where two headings read alike, the source gives them in different places.

Experiments:
caspases 3/7 = assay: Caspase activity, luminescent kit, caspases 3/7; type: cell-based, human; conditions: for kaspáza (3) a 7, raw signal / kaspáza (3) a 7, signal / viabilita: individual experiments by date; for kaspáza (3) a 7, raw signal, průměry / kaspáza (3) a 7, % kontroly / kaspáza (3) a 7, signal / viabilita, průměry: mean; for kaspáza (3) a 7, % kontroly / kaspáza (3) a 7, signal / viabilita / kaspáza (3) a 7, signal / viabilita, průměry: normalised to viability
Protocol: To assess the effect of the compounds on caspase activity, MCF-7 cells were incubated with 100 nM Bp4eT or its metabolites for 3, 24 or 72 h/37°C in 96-well plates, as described above. The cells were then lysed by adding 100 μL of cold lysis buffer (100 mM HEPES, 10 mM CHAPS, 10 mM D-L-dithiothreitol, pH 7.4) to 100 μL of medium in each well. Lysates were immediately frozen at -80°C. Thawed lysates were used to assess caspase activity using luminescent kits for caspases 3/7, 8 and 9 (Promega, Madison, WI, USA). The luminescence was measured using the Tecan Infinite 200M plate reader. Caspase activity in the experimental groups was corrected according to the cellular viability of each group and expressed as a percentage of activity of the untreated control (100%).

H9c2 cardiomyoblasts = assay: MTT cytotoxicity assay, H9c2 cells; type: cell-based, rat; conditions: for IC50: MTT, read-out: IC50
Protocol: For cytotoxicity experiments, cancer cells were seeded at a density of 5,000 (MCF-7), 10,000 (HL-60) or 2,000 cells/well (HCT116 and A549) in 96-well plates (TPP) for 24 h/37°C prior to the addition of examined agents. The non-cancerous cells, 3T3 and H9c2 cells, were cultured for 24 h/37°C in 96-well plates at a density of 10,000 cells/well, the medium was then changed to serum- and pyruvate-free DMEM (Sigma-Aldrich) and incubated with the cells for another 24 h/37°C. The cytotoxic effects of Bp4eT and its metabolites were studied at different concentrations after a 72 h/37°C incubation. In order to aid the dissolution of the lipophilic ligands, 0.1% dimethyl sulfoxide (v/v) (DMSO; Sigma-Aldrich) was present in the culture medium of all groups. At this concentration, DMSO had no effect on cellular proliferation or viability.
The viability of cells were determined using an MTT assay (Sigma-Aldrich) according to previously established methods. The optical density of soluble MTT was measured at λ = 570 nm, subtracting the λ = 690 nm background using a Tecan Infinite 200M plate reader (Tecan Group, Männedorf, Switzerland). The viability or proliferation of experimental groups was expressed as a percentage of the untreated controls (100%).
SigmaStat for Windows 3.5 (Systat Software, San Jose, CA, USA) statistical software package was utilized to analyze results. The data are expressed as the mean ± SD of a given number of experiments. Statistical significance was determined using a one-way ANOVA with a Bonferroni post-hoc test or Student’s t-test. The results were considered to be statistically significant when p < 0.05. The IC50 values were calculated using CalcuSyn 2.0 software (Biosoft, Cambridge, UK). Cell cycle analysis was evaluated using MultiCycle AV Software (Phoenix Flow Systems, San Diego, CA, USA).

[1] = system: 3T3 mouse embryo fibroblasts; assay: MTT cytotoxicity assay, 3T3 cells; type: cell-based; conditions: 3T3, 10 000 b/j, individual experiments
How it was run: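 Non-cancerous 3T3 mouse embryo fibroblasts were plated at 10,000 cells/well in 96-well plates and cultured for 24 h/37°C. The medium was then replaced with serum- and pyruvate-free DMEM for a further 24 h/37°C. Cells were exposed to agents for 72 h/37°C with 0.1% DMSO present, and viability was measured by MTT.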

CCNC(=O)NN=C(c1ccccc1)c1ccccn1 [E-Bp4eS, 2-benzoylpyridine 4-ethylsemicarbazone]
kaspáza (3) a 7, raw signal (caspases 3/7; 3 hodiny): 2046.5 and 1555.5 and 1698 and 1596
kaspáza (3) a 7, raw signal, průměry (caspases 3/7; 3 hodiny): 1724
kaspáza (3) a 7, % kontroly (caspases 3/7; 3 hodiny): 106.30 % kontroly
kaspáza (3) a 7, signal / viabilita (caspases 3/7; 3 hodiny): 20.8429 and 15.8422 and 17.2935 and 16.2547
kaspáza (3) a 7, signal / viabilita, průměry (caspases 3/7; 3 hodiny): 17.5583
kaspáza (3) a 7, raw signal (caspases 3/7; 24 hodin): 2362.5 and 2475 and 2765.5 and 2572
kaspáza (3) a 7, raw signal, průměry (caspases 3/7; 24 hodin): 2543.75
kaspáza (3) a 7, % kontroly (caspases 3/7; 24 hodin): 112.45 % kontroly
kaspáza (3) a 7, signal / viabilita (caspases 3/7; 24 hodin): 23.7515 and 24.8825 and 27.8031 and 25.8577
kaspáza (3) a 7, signal / viabilita, průměry (caspases 3/7; 24 hodin): 25.5737
kaspáza (3) a 7, raw signal (caspases 3/7; 72 hodin): 7302.5 and 8023 and 7227 and 8569
kaspáza (3) a 7, raw signal, průměry (caspases 3/7; 72 hodin): 7780.38
kaspáza (3) a 7, % kontroly (caspases 3/7; 72 hodin): 107.49 % kontroly
kaspáza (3) a 7, signal / viabilita (caspases 3/7; 72 hodin): 74.6601 and 82.0264 and 73.8882 and 87.6086
kaspáza (3) a 7, signal / viabilita, průměry (caspases 3/7; 72 hodin): 79.5458
IC50 (H9c2 cardiomyoblasts; H9c2, 72 h/37°C, mean ± SD, n ≥ 4): 884 ± 279 µM
MTT, relative to control (0 = 100) (H9c2 cardiomyoblasts; H9c2, 10 000 b/j, 1 μM, průměr (mean), sheet E-Bp4eS): 94.39
MTT, relative to control (0 = 100) (H9c2 cardiomyoblasts; H9c2, 10 000 b/j, 1 μM, single experiment (date), sheet E-Bp4eS): 95.7668 and 93.0745 and 94.7872 and 93.9178
MTT, relative to control (0 = 100) (H9c2 cardiomyoblasts; H9c2, 10 000 b/j, 3 μM, průměr (mean), sheet E-Bp4eS): 94.04
MTT, relative to control (0 = 100) (H9c2 cardiomyoblasts; H9c2, 10 000 b/j, 3 μM, single experiment (date), sheet E-Bp4eS): 97.8721 and 90.4272 and 95.5074 and 92.3686
MTT, relative to control (0 = 100) (H9c2 cardiomyoblasts; H9c2, 10 000 b/j, 10 μM, průměr (mean), sheet E-Bp4eS): 92.87
MTT, relative to control (0 = 100) (H9c2 cardiomyoblasts; H9c2, 10 000 b/j, 10 μM, single experiment (date), sheet E-Bp4eS): 97.5948 and 91.5814 and 93.3122 and 89.0018
MTT, relative to control (0 = 100) (H9c2 cardiomyoblasts; H9c2, 10 000 b/j, 30 μM, průměr (mean), sheet E-Bp4eS): 87.33
MTT, relative to control (0 = 100) (H9c2 cardiomyoblasts; H9c2, 10 000 b/j, 30 μM, single experiment (date), sheet E-Bp4eS): 92.2111 and 86.1798 and 89.4636 and 81.4505
MTT, relative to control (0 = 100) (H9c2 cardiomyoblasts; H9c2, 10 000 b/j, 100 μM, průměr (mean), sheet E-Bp4eS): 77.15
MTT, relative to control (0 = 100) (H9c2 cardiomyoblasts; H9c2, 10 000 b/j, 100 μM, single experiment (date), sheet E-Bp4eS): 79.5863 and 76.8996 and 78.6318 and 73.5016
MTT, relative to control (0 = 100) (H9c2 cardiomyoblasts; H9c2, 10 000 b/j, 300 μM, průměr (mean), sheet E-Bp4eS): 65.67
MTT, relative to control (0 = 100) (H9c2 cardiomyoblasts; H9c2, 10 000 b/j, 300 μM, single experiment (date), sheet E-Bp4eS): 61.9338 and 65.3898 and 65.2717 and 70.085
MTT, relative to control (0 = 100) (H9c2 cardiomyoblasts; H9c2, 10 000 b/j, 1000 μM, průměr (mean), sheet E-Bp4eS): 48.11
MTT, relative to control (0 = 100) (H9c2 cardiomyoblasts; H9c2, 10 000 b/j, 1000 μM, single experiment (date), sheet E-Bp4eS): 55.0254 and 43.1142 and 38.2886 and 56.005
IC50 (H9c2 cardiomyoblasts; H9c2, 10 000 b/j, single experiment (date), sheet E-Bp4eS): 683 µM and 1140 µM and 606 µM
IC50 (H9c2 cardiomyoblasts; Rattus norvegicus, H9c2, H9c2, 10 000 b/j, průměr (mean), sheet E-Bp4eS): 884 µM
IC50 (H9c2 cardiomyoblasts; Rattus norvegicus, H9c2, H9c2, 10 000 b/j, single experiment (date), sheet E-Bp4eS): 1100 µM
MTT viability (0 = 100) ([1]; koncentrace 1 μM): 96.8721 and 104.341 and 100.156 and 97.6643
MTT viability (0 = 100) ([1]; koncentrace 3 μM): 91.697 and 99.6923 and 92.7572 and 93.5961
MTT viability (0 = 100) ([1]; koncentrace 10 μM): 87.504 and 95.4305 and 94.9836 and 95.1509
MTT viability (0 = 100) ([1]; koncentrace 30 μM): 95.2772 and 94.6873 and 87.6265 and 86.7904
